Series [1] is described as follows: Biodegradability, modified MITI test method (OECD301C). The settings on record: base oil ester alone. The procedure: A biodegradation rate was measured according to the modified MITI test method (OECD301C).
Series [2] can be described thus: Saponification value (JIS K 2503). The format is physicochemical. The settings on record: base oil ester.
Series [3] is described as follows: Kinematic viscosity (JIS K 2283). The class given is physicochemical. As to conditions: base oil ester.
Series [4] is described as follows: Acid value (JIS K 2501). The format is physicochemical. The settings on record: base oil ester.

Regarding “trimethylolpropane diisostearate [Ester G]”, the Biodegradability in series [1] turned out to be 65.0%. For the same substance, in series [2], the “Saponification Value” was determined as 176 mgKOH/g. Also, in series [3], the “Viscosity @ 40° C.” value was 105.0 mm^2/s. For the same substance, the “Acid Value” in series [4] stood at 0.06 mgKOH/g.
Consider di(pentaerythritol)oleate [Ester E], for which the “Saponification Value” in series [2] stood at 172 mgKOH/g. The “Viscosity @ 40° C.” value in series [3] turned out to be 556.8 mm^2/s. Further, in series [4], the “Acid Value” stood at 3.30 mgKOH/g.

Values taken from US9139795B2, “Biodegradable lubricant composition” (IDEMITSU KOSAN CO., LTD., priority 2009, dated 2015).
